This note sets out measurements from paper PMC6944458, “Intracellular and in vivo evaluation of imidazo[2,1-b]thiazole-5-carboxamide anti-tuberculosis compounds” (PLoS ONE, 2020).

Converted amounts (≈) assume the structure as drawn. Read-outs that look alike come from different tables or passages of the source.

Assay type in all cases: cell-based, Mycobacterium tuberculosis
Experiment [1] deals with Fluoroquinolone resistant strain derived from H37Rv Mtb, gyrA mutant (D94N).
For experiment [2], the system named is Rifampicin resistant strain derived from H37Rv Mtb, ropB mutant (S522L).
Experiment [3] has as its system Rifampicin resistant strain ACTCC35838. Nature of the experiment: microbe, parasite or virus in culture. To be noted: read-out: MIC RIF res2.
Experiment [4] relates to Isoniazid resistant strain derived from H37Rv Mtb, katG mutant (Y155* = truncation).
Experiment [5] deals with Isoniazid resistant strain ACTCC35822.

On to `C[C@H]1COc2c(N3CCN(C)CC3)c(F)cc3c(=O)c(C(=O)O)cn1c23` [LEV, Levoflaxacin], for which, in experiment [1], the “MIC FQ res” value is 91 µM (≈ 32.9 µg/mL). For the same molecule, the “MIC RIF res1” value in experiment [2] was 3.43 µM (≈ 1.24 µg/mL). Further, in experiment [3], the MIC worked out at 3.83 µM (≈ 1.38 µg/mL). In experiment [4], the “MIC INH res1” value came to 3.97 µM (≈ 1.43 µg/mL). Also, the “MIC INH res2” value in experiment [5] (ACTCC35822) worked out at 5.83 µM (≈ 2.11 µg/mL).
For `CO[C@H]1/C=C/O[C@@]2(C)Oc3c(C)c(O)c4c(O)c(c(/C=N/N5CCN(C)CC5)c(O)c4c3C2=O)NC(=O)/C(C)=C\C=C\[C@H](C)[C@H](O)[C@@H](C)[C@@H](O)[C@@H](C)[C@H](OC(C)=O)[C@@H]1C` [RIF, Rifampicin], the “MIC FQ res” value in experiment [1] was determined as 0.043 µM (≈ 0.0354 µg/mL). For the same molecule, in experiment [2], the “MIC RIF res1” value worked out at 3.2 µM (≈ 2.63 µg/mL). In addition, in experiment [3] (Mycobacterium tuberculosis), the MIC is above 50 µM. Further, the “MIC INH res1” value in experiment [4] came out at 0.027 µM (≈ 0.0222 µg/mL). Further, in experiment [5], the “MIC INH res2” value amounted to 0.013 µM (≈ 0.0107 µg/mL).
Taken in the same sequence, the figures for `Cc1cn2c(C(=O)NCc3ccc(N4CCS(=O)(=O)CC4)c(F)c3)c(C)nc2s1` [ND-11903, N-(4-(1,1-Dioxidothiomorpholino)-3-fluorobenzyl)-2,6-dimethylimidazo[2,1-b]thiazole-5-carboxamide] were 3.2 µM (≈ 1.4 µg/mL), 2.9 µM (≈ 1.27 µg/mL), 7 µM (≈ 3.06 µg/mL), 6.5 µM (≈ 2.84 µg/mL) and 5.0 µM (≈ 2.18 µg/mL).
Taken in the same sequence, the figures for `CCc1nc2sc(C)cn2c1C(=O)NCc1ccc(Oc2cccc(C(F)(F)F)c2)nc1` [ND-12024, 6-Ethyl-2-methyl-N-((6-(3-(trifluoromethyl)phenoxy)yridine-3-yl)methyl)imidazo[2,1-b]thiazole-5-carboxamide] were 0.40 µM (≈ 0.184 µg/mL), 0.047 µM (≈ 0.0216 µg/mL), 0.13 µM (≈ 0.0599 µg/mL), 0.49 µM (≈ 0.226 µg/mL) and 0.22 µM (≈ 0.101 µg/mL).
In the same order, the values of `CCc1nc2ccc(Cl)cn2c1C(=O)NCc1ccc(N2CCC(c3ccc(OC(F)(F)F)cc3)CC2)cc1` [Q203] are 0.0058 µM (≈ 0.00323 µg/mL), 0.0030 µM (≈ 0.00167 µg/mL), 0.0056 µM (≈ 0.00312 µg/mL), 0.0074 µM (≈ 0.00412 µg/mL) and 0.0038 µM (≈ 0.00212 µg/mL).
Regarding `NNC(=O)c1ccncc1` [INH, Isoniazid], the “MIC FQ res” value in experiment [1] is 0.34 µM (≈ 0.0466 µg/mL). Besides, the “MIC RIF res1” value in experiment [2] worked out at 0.160 µM (≈ 0.0219 µg/mL). Besides, the MIC in experiment [3] (Mycobacterium tuberculosis) turned out to be 0.37 µM (≈ 0.0507 µg/mL). Further, in experiment [4], the “MIC INH res1” value is above 200 µM. For the same molecule, in experiment [5], the “MIC INH res2” value was above 200 µM.
As to `Cc1cn2c(C(=O)NCc3ccc(N4CCN(c5ccc(C(F)(F)F)cn5)CC4)c(F)c3)c(C)nc2s1` [ND-11543, N-(3-fluoro-4-(4-(5-(trifluoromethyl)pyridin-2-yl)piperazin-1-yl)benzyl)-2,6-dimethylimidazo[2,1-b]thiazole-5-carboxamide], in experiment [1], the “MIC FQ res” value is 0.010 µM (≈ 0.00533 µg/mL). In addition, in experiment [2], the “MIC RIF res1” value turned out to be 0.0017 µM (≈ 0.000905 µg/mL). Further, the MIC in experiment [3] (Mycobacterium tuberculosis) was 0.0057 µM (≈ 0.00304 µg/mL). Further, the “MIC INH res1” value in experiment [4] was 0.012 µM (≈ 0.00639 µg/mL). For the same molecule, the “MIC INH res2” value in experiment [5] turned out to be 0.0047 µM (≈ 0.0025 µg/mL).
